Reference: publication PMC9316317, “Reducing the Kidney Uptake of High Contrast CXCR4 PET Imaging Agents via Linker Modifications” (Pharmaceutics, 2022)
Where two headings read alike, the source gives them in different places. Blank lines part the entries; values can stand above or below the molecule they belong to. Where a SMILES comes first, the peptide text is derived from it. Bridges are numbered along the chain shown (N, C = ends). Side-chain parts run from the residue outwards. [ ]: non-standard residue; d: D form. The star is where a group is joined. DOTA = O=C(O)CN1CCN(CC(=O)O)CCN(CC(=O)*)CCN(CC(=O)O)CC1; 2Nal = N[C@@H](Cc1ccc2ccccc2c1)C(=O)O; Lys(iPr) = CC(C)NCCCC[C@H](N)C(=O)O

Columns and labels:
[1] = quoted in discussion, approximate; ammonium salt of N-methylpiperidine; carboxylate in aspartate; no reference given; cited from earlier work
Text: The placement of three consecutive charged amino acids may increase the pKa of the neighboring carboxylate due to unfavorable electrostatic repulsions. The sulfonate has a lower pKa than a carboxylate (approximately −1.7 versus 1.9 in aspartate), and as such, may be able to better retain its negative charge, thereby increasing the excretion of the radiotracer from the kidneys. However, there was no difference in LogD7.4 values between [^68Ga]Ga-BL02 and [^68Ga]Ga-BL31. The increased capacity to hold a negative cha ...

[2] = system: CXCR4-expressing Daudi xenograft mice; conditions: mouse, in vivo, iv
Experimental: (§1) Male NOD.Cg-Rag1tm1Mom Il2rgtm1Wjl/SzJ (NRG) mice were obtained from an in-house breeding colony at the Animal Resource Centre of the BC Cancer Research Centre, Vancouver, Canada. Mice (6–10 weeks old, 25–30 g weight) were subcutaneously inoculated with 5 × 10^6 Daudi cells (100 μL; 1:1 ratio of PBS/Matrigel) on the left flank.
(§2) Additional groups of mice received 7.5 µg (0.25–0.3 mg/kg) LY2510924 as a blocking control i.p. 15 min before radiotracer injection, and euthanized 1 h p.i. Tissues were harvested, washed in PBS, blotted dry, and weighed, and radioactivity was counted on a Hidex AMG Automatic Gamma Counter. The counts were decay corrected, converted to absolute units using a calibration curve, and expressed as percent injected dose per gram of tissue (%ID/g).

in vivo = conditions: male, NOD.Cg-Rag1tm1Mom Il2rgtm1Wjl/SzJ (NRG), mouse, iv, total radioactivity
Experimental: as §1, §2

mCXCR4 = system: mCXCR4; set-up: method as in PMID 29212254; conditions: cited from earlier work

Molecule: CN1CCCCC1 [N-methylpiperidine]
pKa [1]: approximately 10.08

Blood uptake ([2]; 1 h): 0.27 ± 0.06 %ID/g
Liver uptake ([2]; 1 h): 0.57 ± 0.07 %ID/g
Lung uptake ([2]; 1 h): 0.45 ± 0.08 %ID/g
Spleen uptake ([2]; 1 h): 0.47 ± 0.22 %ID/g
Kidney uptake ([2]; 2 h): 3.40 ± 0.51 %ID/g
Liver uptake ([2]; 2 h): 0.54 ± 0.04 %ID/g
Lung uptake ([2]; 2 h): 0.27 ± 0.09 %ID/g
tissue uptake at 1 h (in vivo; Kidney uptake): 3.81 ± 0.86 %ID/g
Molecule: CC(C)NCCCC[C@@H]1NC(=O)[C@H](Cc2ccc(O)cc2)NC(=O)[C@H](Cc2ccccc2)NC(=O)CC[C@H](C(=O)N[C@@H](CCCCNC(C)C)C(=O)N[C@@H](CCCCNC(=O)[C@H](CCC(=O)O)NC(=O)[C@H](CCC(=O)O)NC(=O)[C@H](CCC(=O)O)NC(=O)CN2CCN(CC(=O)O)CCN(CC(=O)O)CCN(CC(=O)O)CC2)C(N)=O)NC(=O)CNC(=O)[C@H](Cc2ccc3ccccc3c2)NC(=O)[C@@H](CCCNC(=N)N)NC1=O [[68Ga]Ga-BL02, metal not drawn] (FY[Lys(iPr)][dR][2Nal]G[dE][Lys(iPr)]K([Glu-Glu-Glu-DOTA])-NH2; lactam N-7 (inferred); C-terminus assumed)

tissue uptake at 1 h (in vivo; Tumor uptake (Daudi xenograft)): 0.59 %ID/g
Molecule: CC(C)NCCCC[C@@H]1NC(=O)[C@H](Cc2ccc(O)cc2)NC(=O)[C@H](Cc2ccccc2)NC(=O)CC[C@H](C(=O)N[C@@H](CCCCNC(C)C)C(=O)N[C@@H](CCCCNC(=O)[C@@H](CCC(=O)O)NC(=O)[C@@H](CCC(=O)O)NC(=O)[C@@H](CCC(=O)O)NC(=O)CN2CCN(CC(=O)O)CCN(CC(=O)O)CCN(CC(=O)O)CC2)C(N)=O)NC(=O)CNC(=O)[C@H](Cc2ccc3ccccc3c2)NC(=O)[C@@H](CCCNC(=N)N)NC1=O [[68Ga]Ga-BL20, metal not drawn] (FY[Lys(iPr)][dR][2Nal]G[dE][Lys(iPr)]K([dE-dE-dE-DOTA])-NH2; lactam N-7)

Molecule: N[C@@H](CC(=O)O)C(=O)O [aspartate]
pKa [1]: ~1.9

Molecule: LY2510924
decrease in affinity to mCXCR4 as compared to hCXCR4 (mCXCR4): > 1000 fold
